According to patent publication US20110009265A1, “Herbicidal Compositions Comprising Pyroxasulfone” (BASF SE, priority 2008, published 2011):
Like-named read-outs stand apart in the source and are kept apart here.

Legend:
harmful plants = conditions: known from Y. Yamaji et al., 2006; cited from earlier work
Bromus inermis (BROIN) = assay: greenhouse pre-emergence herbicidal activity; type: in vivo; conditions: read-out: observed % activity; for inhibition at 6.25 g/ha: 6.25 g ai/ha; for inhibition at 12.5 g/ha: 12.5 g ai/ha; for inhibition at 25 g/ha: 25 g ai/ha; for inhibition at 50 g/ha: 50 g ai/ha
Text: (§1) For the pre-emergence treatment, directly after sowing the active compounds, which had been suspended or emulsified in water, were applied by means of finely distributed nozzles. The containers were irrigated gently to promote germination and growth and subsequently covered with transparent plastic hoods until plant had rooted. This cover caused uniform germination of the tests plants, unless this was adversely affected by active compounds.
(§2) The respective herbicides A and/or safener were formulated as 10% by weight strength suspension concentrate and introduced to the spray liquor with the amount of solvent system used for applying the active compound. Herbicide B and/or safener were used as commercially available formulations and introduced to the spray liquor with the amount of solvent system used for applying the active compound. In the examples, the solvent used was water.
(§3) Pendimethalin was used as a commercial aqueous suspension concentrate having an active ingredient concentration of 400 g/l.
(§4) The test period extended over 21 days. During this time, the plants were tended, and their response to the treatments with active compound was evaluated.
(§5) The evaluation for the damage caused by the chemical compositions was carried out using a scale from 0 to 100%, compared to the untreated control plants. Here, 0 means no damage and 100 means complete destruction of the plants.
(§6) The value E, which is to be expected if the activity of the individual compounds is just additive, was calculated using the method of S. R. Colby (1967) “Calculating synergistic and antagonistic responses of herbicide combinations”, Weeds 15, p. 22 ff.
(§7) where • X=effect in percent using herbicide A at an application rate a; • Y=effect in percent using herbicide B at an application rate b; • E=expected effect (in %) of A+B at application rates a+b.
(§8) If the value observed in this manner is higher than the value E calculated according to Colby, a synergistic effect is present.

[1] = system: Phalaris canariensis (PHACA); assay: greenhouse pre-emergence herbicidal activity; type: in vivo; conditions: 6.25 g ai/ha, read-out: observed % activity
Text: as §1, §2, §3, §4, §5, §6, §7, §8

Galium aparine (GALAP) = assay: greenhouse pre-emergence herbicidal activity; type: in vivo; conditions: read-out: observed % activity; for inhibition at 6.25 g/ha: 6.25 g ai/ha; for inhibition at 25 g/ha: 25 g ai/ha; for inhibition at 50 g/ha: 50 g ai/ha
Text: as §1, §2, §3, §4, §5, §6, §7, §8

Thlaspi arvense (THLAR) [2] = assay: greenhouse pre-emergence herbicidal activity; type: in vivo; conditions: read-out: observed % activity; for inhibition at 12.5 g/ha: 12.5 g ai/ha; for inhibition at 50 g/ha: 50 g ai/ha
Text: as §1, §2, §3, §4, §5, §6, §7, §8

Veronica persica (VERPE) = assay: greenhouse pre-emergence herbicidal activity; type: in vivo; conditions: read-out: observed % activity; for inhibition at 6.25 g/ha: 6.25 g ai/ha; for inhibition at 12.5 g/ha: 12.5 g ai/ha; for inhibition at 25 g/ha: 25 g ai/ha; for inhibition at 50 g/ha: 50 g ai/ha
Text: as §1, §2, §3, §4, §5, §6, §7, §8

[3] = system: Capsella bursa-pastoris (CAPBP); assay: greenhouse pre-emergence herbicidal activity; type: in vivo; conditions: read-out: observed % activity; for inhibition at 25 g/ha: 25 g ai/ha; for inhibition at 50 g/ha: 50 g ai/ha
Text: as §1, §2, §3, §4, §5, §6, §7, §8

Avena fatua (AVEFA) = assay: greenhouse pre-emergence herbicidal activity; type: in vivo; conditions: 50 g ai/ha, read-out: observed % activity
Text: as §1, §2, §3, §4, §5, §6, §7, §8

[4] = system: Alopecurus myosuroides (ALOMY); assay: greenhouse post-emergence herbicidal activity; type: in vivo; conditions: 25 g ai/ha; for inhibition at 25 g/ha: Alopecurus myosuroides, read-out: observed % activity
Text: (§9) For the post-emergence treatment, the test plants were first grown to a height of 3 to 20 cm, depending on the plant habit, and only then treated. Here, the herbicidal compositions were suspended or emulsified in water as distribution medium and sprayed using finely distributing nozzles.
as §2, §3, §4, §5, §6, §7, §8

[5] = system: Matricaria inermis (MATIN); assay: greenhouse post-emergence herbicidal activity; type: in vivo; conditions: 50 g ai/ha, read-out: observed % activity
Text: as §9, §2, §3, §4, §5, §6, §7, §8

Lamium purpureum (LAMPU) = assay: greenhouse post-emergence herbicidal activity; type: in vivo; conditions: 50 g ai/ha, 20 DAT
Text: as §9, §2, §3, §4, §5, §6, §7, §8

Stellaria media (STEME) = assay: greenhouse post-emergence herbicidal activity; type: in vivo; conditions: 20 DAT
Text: as §9, §2, §3, §4, §5, §6, §7, §8

[6] = system: Apera spica-venti (APESV); assay: greenhouse post-emergence herbicidal activity; type: in vivo; conditions: 50 g ai/ha, 20 DAT
Text: as §9, §2, §3, §4, §5, §6, §7, §8

Thlaspi arvense (THLAR) [7] = assay: greenhouse post-emergence herbicidal activity; type: in vivo; conditions: for inhibition at 100 g/ha: Thlaspi arvense, read-out: observed % activity
Text: as §9, §2, §3, §4, §5, §6, §7, §8

[8] = system: Amaranthus retroflexus (AMARE); assay: greenhouse post-emergence herbicidal activity; type: in vivo; conditions: 13 g ai/ha, 20 DAT
Text: as §9, §2, §3, §4, §5, §6, §7, §8

Viola arvensis (VIOAR) = assay: greenhouse post-emergence herbicidal activity; type: in vivo; conditions: 25 g ai/ha, 20 DAT
Text: as §9, §2, §3, §4, §5, §6, §7, §8

[9] = system: Capsella bursa-pastoris (CAPBP); assay: greenhouse post-emergence herbicidal activity; type: in vivo; conditions: 25 g ai/ha, 20 DAT
Text: as §9, §2, §3, §4, §5, §6, §7, §8

## Cn1nc(C(F)(F)F)c(CS(=O)(=O)C2=NOC(C)(C)C2)c1OC(F)F [pyroxasulfone, 3-[5-(difluoromethoxy)-1-methyl-3-(trifluoromethyl)pyrazol-4-ylmethylsulfonyl]-4,5-dihydro-5,5-dimethyl-1,2-oxazole]
Harmful plants
  post-emergence activity: only poor post-emergence activity
Bromus inermis (BROIN); 192 h, 8 DAT
  inhibition at 6.25 g/ha: 40%
  inhibition at 12.5 g/ha: 50%
  inhibition at 25 g/ha: 50%
  inhibition at 50 g/ha: 60%
Bromus inermis (BROIN); 480 h, 20 DAT
  inhibition at 6.25 g/ha: 35%
  inhibition at 12.5 g/ha: 60%
  inhibition at 25 g/ha: 60%
  inhibition at 50 g/ha: 75%
[1]; 192 h, 8 DAT
  inhibition at 6.25 g/ha: 40%
[1]; 480 h, 20 DAT
  inhibition at 6.25 g/ha: 40%
Galium aparine (GALAP); 192 h, 8 DAT
  inhibition at 6.25 g/ha: 30%
  inhibition at 25 g/ha: 60%
  inhibition at 50 g/ha: 60%
Galium aparine (GALAP); 480 h, 20 DAT
  inhibition at 6.25 g/ha: 20%
  inhibition at 25 g/ha: 75%
  inhibition at 50 g/ha: 80%
Thlaspi arvense (THLAR) [2]; 192 h, 8 DAT
  inhibition at 12.5 g/ha: 40%
  inhibition at 50 g/ha: 60%
Thlaspi arvense (THLAR) [2]; 480 h, 20 DAT
  inhibition at 12.5 g/ha: 30%
  inhibition at 50 g/ha: 80%
Veronica persica (VERPE); 192 h, 8 DAT
  inhibition at 6.25 g/ha: 45%
  inhibition at 12.5 g/ha: 60%
  inhibition at 25 g/ha: 60%
  inhibition at 50 g/ha: 60%
Veronica persica (VERPE); 480 h, 20 DAT
  inhibition at 6.25 g/ha: 70%
  inhibition at 12.5 g/ha: 90%
  inhibition at 25 g/ha: 85%
  inhibition at 50 g/ha: 90%
[3]; 192 h, 8 DAT
  inhibition at 25 g/ha: 60%
  inhibition at 50 g/ha: 60%
[3]; 480 h, 20 DAT
  inhibition at 25 g/ha: 95%
  inhibition at 50 g/ha: 95%
Avena fatua (AVEFA); 192 h, 8 DAT
  inhibition at 50 g/ha: 70%
Avena fatua (AVEFA); 480 h, 20 DAT
  inhibition at 50 g/ha: 85%
[4]; 20 DAT
  observed activity in % destruction 20 days after treatment: 65%
[4]; 168 h, 7 DAT
  inhibition at 25 g/ha: 25%
[4]; 480 h, 20 DAT
  inhibition at 25 g/ha: 65%
[5]; 168 h, 7 DAT
  inhibition at 50 g/ha: 40%
[5]; 480 h, 20 DAT
  inhibition at 50 g/ha: 0%
Lamium purpureum (LAMPU)
  observed activity in % destruction 20 days after treatment: 70%
Stellaria media (STEME); 50 g ai/ha
  observed activity in % destruction 20 days after treatment: 85%
Stellaria media (STEME); 100 g ai/ha
  observed activity in % destruction 20 days after treatment: 95%
[6]
  observed activity in % destruction 20 days after treatment: 85%
Thlaspi arvense (THLAR) [7]; 25 g ai/ha, 20 DAT
  observed activity in % destruction 20 days after treatment: 50%
Thlaspi arvense (THLAR) [7]; 100 g ai/ha, 20 DAT
  observed activity in % destruction 20 days after treatment: 80%
Thlaspi arvense (THLAR) [7]; 168 h, 100 g ai/ha, 7 DAT
  inhibition at 100 g/ha: 70%
Thlaspi arvense (THLAR) [7]; 480 h, 100 g ai/ha, 20 DAT
  inhibition at 100 g/ha: 80%
[8]
  observed activity in % destruction 20 days after treatment: 45%
Viola arvensis (VIOAR)
  observed activity in % destruction 20 days after treatment: 0%
[9]
  observed activity in % destruction 20 days after treatment: 35%
